Entries after “also recorded” stand apart in the source; their conditions may differ.
Experiments:
[1] = topical 200 ppm gNO, within the first three days of treatment; cited from earlier work
P. aeruginosa = settings: agar plates exposed to gNO; cited from earlier work
[2] = test system: five planktonic species of methicillin resistant S. aureus (MRSA); settings: 1,600 ppm hours of gNO; cited from earlier work
[3] = Randomized double blind study of intermittent gNO inhalation in infants with bronchiolitis, interim results; type: in vivo, human; settings: infants 2-12 months
Excerpt: The following is an exemplary protocol for clinical studies based on the methods according to embodiments of the present invention, aimed at treatment of bronchiolitis in humans. Specifically, the topic of the study is a randomized double blind evaluation of efficacy, safety and tolerability of nitric oxide given intermittently via inhalation to subjects with bronchiolitis.
An improvised inhalation device is based on standard hospital equipment and hospital oxygen source. For example, oxygen is supplied from the main hospital oxygen system via an oxygen blender, such as for example, Bird model 03800, followed by a hospital's oxygen mass flow meter. The oxygen-rich air is monitored so as to reach a maximal final concentration of about 40% O2. The blended air/oxygen is supplied to the subject via a Y-shape connector attached next to a standard hospital face mask such as for example, a Hospiltak mask by Unomedical Inc.
gNO flow, tapped from a tank containing 800 ppm nitric oxide in 99.999% pure N2, supplied by an authorized gas provider in, for example, 50 or 30 litter containers with 120 bar or 150 bar respectively, is adjusted by passing through a standard hospital's regulator, such as for example CareFusion™ model 400, and the hospital mass flow meter, such as a CareFusion™ model 77063.
The gNO flow is adjusted before each inhalation cycle based on the gNO concentration detected in the subject's mask. After a fresh system calibration, the regulator and the mass flow meter are adjusted to deliver 160 ppm of gNO at 5 to 15 liters per minute. gNO is supplied to the subject via the second arm of the Y shaped connector (specified above) attached next to the face mask. Mask and tubing ports are used to monitor continuously gNO and NO2 concentrations and FiO2 values delivered to the subject.
Halitus (exhalation) is monitored by, for example, end-tidal CO2 (EtCO2). EtCO2 is monitored using standard equipment such as Microcap® Portable Capnography Monitor, Cat.# CSO4179 by Oridion, Israel, with nasal prongs such as (Infant Neonate Cat.#008179 by Oridion, Israel.
Methemoglobin (SpMet) and oxygen saturation or dissolved oxygen (SpO2) levels are monitored continuously using a dedicated monitor such as for example RAD 57 by Masimo.
The population for the study is 44 children of 2-12 months old diagnosed with bronchiolitis, whom required hospitalization (expected dropout rate is 10%). The population is split into two groups: Group 1, referred to as the treatment group, receives intermittent (5×30 minutes, a day) inhalation of 160 ppm gNO in addition to the standard treatment of O2 administration, for up to 5 days. Between gNO inhalations, the subjects continue to receive the standard inhalation treatment (O2). Group 2, referred to as the control group, receives continuous inhalation of the standard treatment (O2).
Group 1 (treatment group) receives the standard treatment (O2) combined with the inhalation via face mask of […] administered for 30 minutes every four hours, keeping a minimum of 3 hours between the end of one gNO inhalation cycle and the beginning of the next cycle, five times a day for five consecutive days or until a decision to discontinue therapy. The maximal cumulative exposure to nitric oxide is estimate at 2,000 ppm hours.

[4] = cited from earlier work
[5] = Prospective phase I open label safety study of intermittent 160 ppm gNO inhalation in healthy adults; type: in vivo, human
Excerpt: 10 healthy adult volunteer subjects (5 males, 5 females), aged 20 to 62 years, were enrolled in the study after screening their medical history, a physical examination, pulmonary function tests and blood values. Exclusion criteria included individuals less than 19 years of age, pregnant females and unwilling to practice birth control during the study, diagnosed with pulmonary disease, epistaxis, hemoptysis, methemoglobinemia, organ transplant recipient or receiving antibiotic therapy.
After obtaining informed consent, treatment was initiated within 5 days of enrollment. Subjects were housed in a hospital ward and received 160 ppm gNO for 30 minutes every four hours (Q4h), five times a day, for five consecutive days by inhalation. Subjects returned for follow-up evaluations 3, 7 and 21 days after the final gNO administration. Subject safety was determined by monitoring vital signs, methemoglobin levels, lung function, blood chemistry, hematology, prothrombin time, inflammatory cytokine/chemokines levels and endothelial activation. These parameters were compared to baseline and at various time-points during and after gNO administration.
Subjects were administered gNO through a modified disposable mouthpiece to maximize mixing. Inspiration was spontaneously initiated by the subject from a conventional intermittent positive pressure breathing respirator (Mark-7, Carefusion, USA) in fixed flow mode delivering 48 liters per minute (LPM). Flows of gas were verified with a calibrated mass flow meter (TSI, USA). Gaseous nitric oxide (gNO, obtained at INOmax, Ikaria, USA) at a concentration of 800 ppm delivered at a flow of 12 LPM was titrated into a distal delivery port on the mouth piece connected to the respirator during inspiratory phase only (pressure switch). The Mark 7 respirator was supplied by an air/oxygen blender (Bird Sentry, Carefusion, USA) set to deliver 26% oxygen.
The levels of gNO, NO2, O2 and methemoglobin were monitored during the administration of gNO. The target gas mixture was 160 ppm gNO with a nitrogen dioxide (NO2) level of less than 5 ppm and an oxygen (O2) level ranging from 21% to 25%. Inspiratory NO, NO2 and O2 levels were continuously monitored by sampling from the mouthpiece sample port located about 6 millimeters from the mouth of the subject with an AeroNOx (Pulmonox, AB, Canada) NO, NO2 and O2 electrochemical analyzer. Delivery safety was determined by the number of occasions that NO2 exceeded 5 ppm, gNO exceeding 10% variation and O2 dropping below 20% during gNO administration. A commercially available noninvasive pulse oximeter (Rad 57, Masimo Corporation, USA) was used to measure saturation levels at the periphery of methemoglobin (SpMet).
These parameters were measured continuously during every gNO administration course and for 3.5 hours after the first treatment of the day. Daily serum samples were collected and frozen at −80° C. and the serum […] level was measured using the Griess reagent.
Subjects underwent full pulmonary function tests (PFT), including lung diffusing capacity (DLCO) by a trained technician utilizing a calibrated pulmonary function system (Jaeger MasterScreen, VIASYS Healthcare, USA) on screening and days 2, 8, 12 and 26. Spirometry test (Microloop by Micro Medical, England) was performed on days 1, 3 and 4. Effect of gNO on lung function and DLCO was determined by changes from baseline, treatment days and follow up days.
General medical examinations were performed by a pulmonary physician on screening and on days 8, 12 and 26 to obtain oxygenation and vital sign measurements. Abbreviated physical examination by a registered nurse was carried out each day prior to initiation of treatments on days 1-5. Oxygenation was measured with a pulse oximeter (Rad 57, Masimo Corporation, USA) which was used according to manufacturer's guidelines to measure functional oxygen saturation of arterial hemoglobin (SpO2) and heart rate. […]

[6] = 300 ppm gNO, first 1-2 days, group of 10 rats; cited from earlier work
[7] = in vivo; cited from earlier work
[8] = test system: human respiratory syncytial virus (rgRSV30); assay: Plaque assay of gNO-exposed respiratory syncytial virus; type: cell-based; settings: 160 ppm exogenous gaseous NO
[9] = test system: highly pathogenic Avian Influenza H7N3; settings: cited from earlier work
S. aureus = settings: agar plates exposed to gNO; cited from earlier work
[10] = test system: influenza A/victoria/H3N2; settings: 160 ppm exogenous gNO, MDCK cell model; cited from earlier work
[11] = 250 gNO administration procedures, 10 subjects
[12] = during and after gNO administration

Structure (SMILES): [N]=O [gNO, nitric oxide]
- biofilm [1]: no longer visibly present
- effect on bacterial growth (P. aeruginosa): bacteristatic effect
- bacterial population [2]: reduction in the population
- NO2 levels during treatment [3]: below 2 ppm
- pre-methemoglobin levels in each treatment [3]: less than 5%
- premature withdrawal due to NO related adverse effect [3]: no infant withdrew prematurely
- tolerability [3]: All patients tolerated the NO treatment
- time for SpMet to return to the baseline levels ([3]; 160 ppm gNO 30 min): 210 min
- inhalation threshold limit value (TLV) as time-weighted average (TWA) ([4]; OSHA / Environmental Protection Agency): 25 ppm
- TLV-TWA in ppm hours units ([4]; calculated): 200 ppm hours
- average increase of SpMet in a single treatment course ([5]; 160 ppm gNO for 30 minutes, ten individuals): 0.9%
- adverse events / tolerability [5, 11]: do not cause lung injury or other signs of adverse effects in humans; also recorded: Neither significant adverse events nor adverse events attributable to gNO inhalation occurred; also recorded: safe and well tolerated; also recorded: no significant adverse events were observed
- number of minor adverse events reported [5, 11]: Three
- plasma cytokine levels of TNF, IL-6, IL-8, IL-10, IL-1b and IL-12p70 ([5]; cytometric bead array, vs baseline): unaffected; also recorded: remained constant
- pulmonary function tests [5, 12]: impacts lung function only minimally; also recorded: remained unchanged compared to baseline values
- vital signs [5, 12]: remained well within acceptable clinical margins
- accumulative or residual effect on SpMet ([5]; five daily treatments for five consecutive days, follow-up 3, 7 and 21 days): no accumulative or lingering effect; also recorded: did not show any residual increase in SpMet
- vascular endothelial activation factors Ang-1, Ang-2, Ang-2/Ang-1 ratio ([5]; plasma, vs baseline): not affected; also recorded: unaffected
- number of animals that died [6]: Six
- radius of action from its site of origin [7]: approximately 200 microns
- infectivity [8]: reduced their infectivity
- viral replication and infectivity [9]: reduced their infectivity; also recorded: capable of reducing the infectivity
- effect on bacterial growth (S. aureus): bacteristatic effect
- viral replication and infectivity [10]: reduced their infectivity; also recorded: capable of reducing the infectivity

Source: patent US20150072023A1, “[…] NITRIC OXIDE FOR TREATING RESPIRATORY DISEASES” (Advanced Inhalation Therapies (AIT) Ltd., priority 2013, published 2015)
